In US20110268789A1, “USE OF PITUITARY ADENYLATE CYCLASE-ACTIVATING POLYPEPTIDE (PACAP) AND PACAP ANALOGS AS ADJUNCTIVE TREATMENTS WITH ANTICANCER AGENTS” (priority 2008, published 2011):
Square brackets hold non-standard residues; d marks the D form. Ends that are not written are not given here.

Assays:
[1] = test system: MCF-7 human breast cancer cells; assay: Doxorubicin-induced apoptotic cell death of breast cancer cells; type: cell-based; settings: MCF-7 cells
Protocol: The MCF-7 human breast cancer cells were cultured in Eagle's Minimum Essential Medium supplemented with 10% non-inactivated fetal bovine serum and 0.05 mM 2-mercaptoethanol. The effects of PACAP38 and N-acetyl[Ala^16,17,D-Lys^38]PACAP38 on apoptotic cell death were assessed by the quantitative determination of cytoplasmic histone-associated DNA-fragmentation (mono- and oligonucleosomes) after exposure to doxorubicin for 48 hours. Each value represents the mean plus/minus the standard deviation of three determinations. **p<0.01 compared to the doxorubicin-treated (control) cells.
At the highest dose tested (10^−6 M), both peptides reduced the apoptotic cell death of these breast cancer cells by more than 50%.

[2] = test system: Jurkat human T-lymphocyte leukemia cells; assay: Etoposide-induced apoptotic cell death of leukemia cells; type: cell-based; settings: Jurkat cells
Protocol: The Jurkat human T-lymphocyte leukemia cells were cultured in RPMI 1640 medium supplemented with 10% non-inactivated fetal bovine serum. The effects of PACAP27 and PACAP38 on apoptotic cell death was assessed by the quantitative determination of cytoplasmic histone-associated DNA-fragmentation (mono- and oligonucleosomes) after exposure to etoposide for 48 hours. Each value represents the mean plus/minus the standard deviation of three determinations. **p<0.01 and *p<0.05 compared to the etoposide-treated (control) cells.

[3] = test system: MCF-7 human breast cancer cells; settings: nude mice, MCF-7 cells; cited from earlier work
[4] = test system: PC-3 human prostate cancer cells; settings: nude mice, PC-3 cells; cited from earlier work
[5] = test system: NCI-H838 human non-small cell lung cancer cells; settings: nude mice; cited from earlier work
HK-2 human kidney cells [6] = assay: Cisplatin-induced apoptotic cell death of human renal proximal tubule epithelial cells (histone-associated DNA fragmentation); type: cell-based; settings: HK-2 cells, comparable concentrations, FIG. 4
Protocol: (§1) The HK-2 human kidney cells were cultured in Keratinocyte-Serum Free Medium supplemented with recombinant epidermal growth factor and bovine pituitary extract. The dose-dependent inhibitory effect of PACAP38 on apoptotic cell death was assessed by the quantitative determination of cytoplasmic histone-associated DNA-fragmentation (mono- and oligonucleosomes) after exposure to cisplatin for 24 hours. Each value represents the mean plus/minus the standard error of four determinations in three replicate experiments. **p<0.01 compared to the cisplatin-treated (control) cells.
as §1, with “deviation” for “error”, “different” for “replicate”, “**p<0.01 and *p<0.05” for “**p<0.01”

[7] = test system: light-chain immunoglobulin-secreting human myeloma cells; assay: Doxorubicin-induced apoptotic cell death of myeloma cells; type: cell-based
Protocol: (§2) The light-chain immunoglobulin-secreting human myeloma cells were cultured in RPMI 1640 medium supplemented with 10% non-inactivated fetal bovine serum and 0.05 mM 2-mercaptoethanol. The effects of PACAP38, and [Ala^16,17,D-Lys^38]PACAP38 on apoptotic cell death was assessed by the quantitative determination of cytoplasmic histone-associated DNA-fragmentation (mono- and oligonucleosomes) after exposure to doxorubicin for 48 hours. Each value represents the mean plus/minus the standard deviation of three determinations. **p<0.01 and *p<0.05 compared to the doxorubicin-treated (control) cells.
At the lowest dose tested (10^−8 M), both peptides reduced the doxorubicin-induced apoptotic cell death of these malignant plasma cells.

[8] = test system: light-chain immunoglobulin-secreting human myeloma cells; assay: Carmustine-induced apoptotic cell death of myeloma cells; type: cell-based
Protocol: as §2, with “[Ala^22]PACAP38” for “[Ala^16,17,D-Lys^38]PACAP38”, “carmustine” for “doxorubicin”, “carmustine-treated” for “doxorubicin-treated”

Male C57BL/6 mice = assay: Cisplatin-induced nephrotoxicity in mice; type: in vivo, mouse; settings: cisplatin 20 mg/kg i.p., FIG. 10
Protocol: (§3) Male C57BL/6 mice were given a single intraperitoneal injection of 20 mg/kg of cisplatin. Twenty nanomoles of PACAP38 were given intraperitoneally 1 hour before the injection of cisplatin and additional doses were given at 24 and 48 hours after the initial dose. The control group of mice was injected intraperitoneally with the same volume of saline as for the injections of cisplatin and PACAP38 on the same schedule. The mice were euthanized 24 hours after the final injection of PACAP38. Each value represents the mean plus/minus the standard error of four determinations. ***p<0.001 and **p<0.01 compared to the group treated only with cisplatin.
as §3, with “PACAP38. TNF-α was extracted from one kidney of each mouse and quantified with an enzyme-linked immunosorbent assay.” for “PACAP38.”
Male C57BL/6 mice were given a single intraperitoneal injection of 20 mg/kg of cisplatin. Twenty nanomoles of PACAP38 were given intraperitoneally 1 hour before the injection of cisplatin and additional doses were given at 24 and 48 hours after the initial dose. The control group of mice were injected intraperitoneally with the same volume of saline as for the injections of cisplatin and PACAP38 on the same schedule. The mice were euthanized 24 hours after the final injection of PACAP38, and the kidneys were removed and fixed in 10% formalin. The fixed sections were stained with hematoxylin and eosin. The sections of the kidneys from control mice show intact renal tubular epithelial cells and well-preserved brush border membranes. The kidneys from mice treated with cisplatin had extensive tubular damage, tubular dilations, intratubular debris, and intratubular casts. […] Tubular damage was more pronounced in the outer cortex in the cisplatin treated mice. The photomicrographs on the left side were made at a lower magnification (×160) than the photomicrographs on the right side (×320). The results described in FIGS. 5, 6, 7, and 8 were from the same experiment.
as §3, with “six” for “four”
as §3, with “The cytoprotective effect of PACAP38 against cisplatin-induced nephrotoxicity was also seen in a common in vivo model. Male” for “Male”, “PACAP38.” for “PACAP38. Each value represents the mean plus/minus the standard error of four determinations. ***p<0.001 and **p<0.01 compared to the group treated only with cisplatin.”

[9] = test system: PC-12 rat pheochromocytoma cells; assay: Cisplatin-induced apoptotic cell death of pheochromocytoma cells; type: cell-based; settings: PC-12 cells
Protocol: The PC-12 rat pheochromocytoma cells were cultured in F-12K medium supplemented with 15% horse serum and 2.5% fetal bovine serum. The dose-dependent inhibitory effects of PACAP38 and the PACAP38 analogs on apoptotic cell death were assessed by the quantitative determination of cytoplasmic histone-associated DNA-fragmentation (mono- and oligonucleosomes) after exposure to cisplatin for 24 hours. Each value represents the mean plus/minus the standard error of four determinations. **p<0.01 and *p<0.05 compared to the cisplatin-treated (control) cells.

L-132 human lung cells = assay: Bleomycin-induced apoptotic cell death of human pulmonary epithelial cells; type: cell-based; settings: L-132 cells, peptide added to the medium, FIG. 12
Protocol: The L-132 human lung cells were cultured in Eagle's Minimum Essential Medium supplemented with 10% fetal bovine serum. […] Each value represents the mean plus/minus the standard deviation of four determinations in three replicate experiments. **p<0.01 and *p<0.05 compared to the bleomycin-treated (control) cells.
At the highest dose tested (10^−6 M), all three peptides reduced the apoptotic cell death of these epithelial cells by more than 60%. […] Therefore, pre- and/or post-treatment of subjects undergoing bleomycin-based cancer chemotherapy with therapeutic doses of PACAP38 and/or PACAP analogs should result in a higher maximal tolerable dose of bleomycin, and an increased frequency of partial clinical responses and/or an increased number of complete remissions.

HK-2 human kidney cells [10] = assay: Doxorubicin-induced apoptotic cell death of human renal proximal tubule epithelial cells; type: cell-based; settings: HK-2 cells, peptide added to the medium, FIG. 11
Protocol: The HK-2 human kidney cells were cultured in Keratinocyte-Serum Free Medium supplemented with recombinant epidermal growth factor and bovine pituitary extract. […] Each value represents the mean plus/minus the standard deviation of four determinations in three replicate experiments. **p<0.01 and *p<0.05 compared to the doxorubicin-treated (control) cells.
At the highest dose tested (10^−6 M), all three peptides reduced the apoptotic cell death of these epithelial cells by more than 60%.

[11] = rat, in vivo, iv; cited from earlier work
[12] = normal human volunteers and a patient with multiple myeloma; cited from earlier work
[13] = test system: rat hippocampal neuron/glia co-cultures; settings: cited from earlier work

N-acetyl[Ala^16,17,D-Lys^38]PACAP38
relative potency in reducing doxorubicin-induced apoptotic cell death [1]: slightly more potent than PACAP38
reduction in doxorubicin-induced apoptotic cell death ([1]; doxorubicin 48 hours, FIG. 14): dose-dependent reduction

PACAP27 (HSDGIFTDSYSRYRKQMAVKKYLAAVL-NH2)
reduction in etoposide-induced apoptotic cell death ([2]; etoposide 48 hours, FIG. 15): small reduction
significance of the reduction of etoposide-induced apoptotic cell death ([2]; highest dose tested 10^−6 M): did not have a significant effect

PACAP(6-38) (FTDSYSRYRKQMAVKKYLAAVLGKRYKQRVKNK; ends and bridges not checked; UniProt P18509 137-169, looked up, fragment) [a PACAP/VIP receptor antagonist]
growth of xenografts [3]: inhibited the growth
growth of xenografts [4]: inhibited the growth
growth of xenografts [5]: inhibited the growth

[Aib^2]PACAP38
relative effectiveness as protectants against cisplatin-induced apoptotic cell death (HK-2 human kidney cells [6]): similarly effective

[Ala^16,Ala^17,D-Lys^38]PACAP38 (HSDGIFTDSYSRYRKAAAVKKYLAAVLGKRYKQRVKN[dK]; ends and bridges not checked) [[Ala^16,17,D-Lys^38]PACAP38]
effect on doxorubicin-induced apoptotic cell death (dose-response) ([7]; doxorubicin 48 hours, FIG. 16): biphasic dose-response effect
effect on doxorubicin-induced apoptotic cell death ([7]; highest dose tested (10^−6 M)): small, but not significant, enhancement
effect on doxorubicin-induced apoptotic cell death ([7]; lowest dose tested (10^−8 M)): reduced

[Ala^22]PACAP38 (HSDGIFTDSYSRYRKQMAVKKALAAVLGKRYKQRVKNK; ends and bridges not checked)
effect on carmustine-induced apoptotic cell death ([8]; carmustine 48 hours, FIG. 17): enhancement
effect on carmustine-induced apoptotic cell death ([8]; highest dose tested (10^−6 M)): significantly enhanced

[D-Ser^2,Lys^38-palmitoyl]PACAP38
relative potency as cytoprotectants against cisplatin-induced impairment of kidney function (serum creatinine) (Male C57BL/6 mice): less potent

[Lys^34]PACAP38 (HSDGIFTDSYSRYRKQMAVKKYLAAVLGKRYKQKVKNK; ends and bridges not checked)
reduction in cisplatin-induced apoptotic cell death ([9]; cisplatin 24 hours, FIG. 13): dose-dependent reduction
reduction of cisplatin-induced apoptotic cell death ([9]; highest dose tested (10^−6 M)): significantly reduced
reduction in bleomycin-induced apoptotic cell death (L-132 human lung cells): significant dose-dependent reduction
reduction in doxorubicin-induced apoptotic cell death (HK-2 human kidney cells [10]): significant dose-dependent reduction

[^125I]-PACAP38
half-life in the bloodstream [11]: 5 to 6 min

pituitary adenylate cyclase-activating polypeptide [PACAP]
untoward effect reported [12]: transient flushing
peak of bimodal dose-response curve for prevention of gp120-induced neuronal death (lower peak) [13]: 10^−13 M
peak of bimodal dose-response curve for prevention of gp120-induced neuronal death (upper peak) [13]: 10^−10 M
